Consider 8 molecules from ChEMBL document CHEMBL1201862, “PubChem BioAssay data set” (2004).

Assay in all cases: growth of human tumour cells (NCI), 48 h
Experiment [1] deals with HOP-62.
In experiment [2] the test system is SK-OV-3.
Experiment [3] concerns MDA-MB-231.
Experiment [4] relates to UO-31.
Experiment [5] has as its system OVCAR-3.
In experiment [6] the test system is 786-0.
Experiment [7] has as its system Hs-578T.
Experiment [8] has as its system COLO 205.
For experiment [9], the system named is SNB-75.
Experiment [10] relates to MDA-MB-435.
Experiment [11] relates to RXF 393.
Experiment [12] relates to SNB-19.
The subject of experiment [13] is CCRF-CEM.
Experiment [14] deals with UACC-62.
Experiment [15] deals with PC-3.
The test system of experiment [16] is HOP-92.
The test system of experiment [17] is ACHN.
Experiment [18] deals with SK-MEL-28.
Experiment [19] has as its system EKVX.
For experiment [20], the system named is DU-145.

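Cells were grown in 96-well plates and exposed to each compound for 48 hours at five concentrations; endpoints were interpolated linearly between bracketing concentrations, or set to the highest concentration if not reached. The concentration for 50% growth inhibition is given as GI50.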 Activity calls are given as the source filed them. No stated cut-off is given here; in the data, active = GI50 up to about 1.1 µM and inactive = higher. Bounds are passed on as bounds.

With `CCCCCCCCCCCCCCCCOP(=O)(O)OP(=O)(O)OCC1OC(n2ccc(N)nc2=O)CC1O` (centres undefined), the GI50 in [1], in experiment [2], in experiment [3], in experiment [4], in [5] and in experiment [6] was > 100 µM (inactive) throughout. The GI50 in experiment [7], in [8], in experiment [9], in experiment [10], in experiment [11] and in experiment [12] was > 100 µM (inactive) throughout. For the same molecule, the GI50 in [13], in experiment [14], in experiment [15], in experiment [16], in experiment [17] and in experiment [18] was > 100 µM (inactive) each time. Moreover, the GI50 in [19] is > 100 µM (inactive).

In the case of `O=C1c2ccccc2C(=O)N1CC1(C(=O)O)NCCS1(=O)=O` (centres undefined), the GI50 in [1], in experiment [2], in [3], in experiment [4], in experiment [5] and in experiment [6] was > 100 µM (inactive) each time. The GI50 in experiment [7], in [8], in experiment [10], in experiment [11], in [12] and in experiment [13] was > 100 µM (inactive) each time. Besides, the GI50 was > 100 µM (inactive) in experiment [14]; > 100 µM (inactive) in experiment [15]; > 100 µM (inactive) in experiment [16]; > 100 µM (inactive) in experiment [17]; > 100 µM (inactive) in experiment [18]; 91.4 µM (inactive) in [19].

On to `CN(Cc1cnc2nc(N)nc(N)c2n1)c1ccc(C(=O)N[C@@H](CCS(=O)(=O)O)C(=O)O)cc1`, for which the GI50 in [1] is 1.99 µM (inactive); in [3], > 100 µM (inactive); in experiment [4] it was 0.698 µM (active); in experiment [5] it was > 49.5 µM (inactive); in experiment [6] it was 0.0583 µM (active); in experiment [7], > 100 µM (inactive). The GI50 was > 100 µM (inactive) in experiment [8]; 0.0611 µM (active) in [11]; 0.582 µM (active) in experiment [12]; > 100 µM (inactive) in experiment [13]; 0.562 µM (active) in experiment [20]; 0.248 µM (active) in experiment [14]. Also, the GI50 was 0.0459 µM (active) in experiment [15]; > 100 µM (inactive) in [16]; 0.225 µM (active) in [17]; > 100 µM (inactive) in experiment [18]; > 73.3 µM (inactive) in experiment [19].

For the molecule `CCOC(=O)C(NC(=O)NCc1ccc(F)cc1)C(F)(F)F` (centres undefined), the GI50 in experiment [2], in experiment [4], in experiment [6], in experiment [7], in [8] and in [9] was > 100 µM (inactive) in each case. The GI50 in experiment [10], in experiment [11], in experiment [12], in [13], in experiment [15] and in experiment [17] was > 100 µM (inactive) each time. Besides, the GI50 in [18] and in experiment [19] was > 100 µM (inactive) in each case.

`CN1CCN(C2=C(Cl)C3(OCCS3)C(F)(F)C2(F)F)CC1` (centres undefined): the GI50 in experiment [1] was 46.9 µM (inactive); in [2], > 100 µM (inactive); in experiment [3], 82 µM (inactive); in experiment [4] it was 55 µM (inactive); in [5] it was 57 µM (inactive); in [6], > 100 µM (inactive). For the same molecule, the GI50 was > 100 µM (inactive) in experiment [7]; 43.4 µM (inactive) in experiment [8]; 51.3 µM (inactive) in experiment [9]; > 100 µM (inactive) in experiment [10]; > 100 µM (inactive) in experiment [11]; > 100 µM (inactive) in [12]. Also, the GI50 in [13] is > 100 µM (inactive); in experiment [20] it was > 100 µM (inactive); in experiment [14], > 100 µM (inactive); in [16] it was 66.5 µM (inactive); in [17] it was > 100 µM (inactive); in experiment [19] it was > 100 µM (inactive).

Consider `C[n+]1c(-c2ccc(/C=N/Nc3ccnc(N/N=C/c4ccc(-c5cn6ccccc6[n+]5C)cc4)n3)cc2)cn2ccccc21`, for which the GI50 in [1] is 43.2 µM (inactive); in [2], > 100 µM (inactive); in experiment [3], > 100 µM (inactive); in experiment [4], 21.2 µM (inactive); in [6], 47.2 µM (inactive); in [7] it was 30.5 µM (inactive). For the same molecule, the GI50 in [8] is 94 µM (inactive); in experiment [9] it was 34.7 µM (inactive); in experiment [10], > 10 µM (inactive); in experiment [12], 42.8 µM (inactive); in [15], > 100 µM (inactive); in experiment [17] it was 25.3 µM (inactive). Moreover, the figures for the GI50 in [18] and in experiment [19] were 34.7 µM (inactive) and > 100 µM (inactive), respectively.

Consider `O=C(Nc1ccc2[nH]c(C(=O)N3CC(CCl)c4ccc([N+](=O)[O-])cc43)cc2c1)c1cc2ccccc2o1` (centres undefined), for which the GI50 in [1], in [2], in experiment [3], in experiment [4], in experiment [5] and in experiment [6] was > 1100 µM (inactive) throughout. The GI50 in experiment [7], in experiment [8], in experiment [10], in experiment [11], in experiment [12] and in experiment [13] was > 1100 µM (inactive) each time. Also, the GI50 in experiment [20], in experiment [14], in experiment [16], in experiment [18] and in [19] was > 1100 µM (inactive) throughout.

Regarding `S=C(/N=c1\sc(Nc2ccc(Cl)cc2)nc2sc3c(c12)CCN(N1CCc2c(sc4nc(Nc5ccc(Cl)cc5)s/c(=N\C(=S)Nc5ccc(Cl)cc5)c24)C1)C3)Nc1ccc(Cl)cc1`, the GI50 in [1] was 36.1 µM (inactive); in [2], 27.7 µM (inactive); in experiment [3], 18.6 µM (inactive); in experiment [4], 62.1 µM (inactive); in experiment [5] it was 42.3 µM (inactive); in [6], 18 µM (inactive). Further, the GI50 in experiment [7] was > 100 µM (inactive); in experiment [8] it was 57.9 µM (inactive); in [9], 26.7 µM (inactive); in experiment [11] it was 18.9 µM (inactive); in [12], 55.2 µM (inactive); in experiment [20] it was 25.4 µM (inactive). The GI50 was 22.4 µM (inactive) in [14]; 30.3 µM (inactive) in [15]; 35.1 µM (inactive) in experiment [17]; 38.2 µM (inactive) in [18]; 61.7 µM (inactive) in experiment [19].
